One data set deals with NALM6. The data set can be described thus: Targeted pro-apoptotic small molecule screening with CART19 against NALM6, killing by luminescence at 48 hours. The conditions noted are these: drug 100 and 1000 nM with CART19.
For a further data set, the system named is CART19-BCL-2(WT). Briefly: In vitro venetoclax CART cell toxicity assay. It is filed as cell-based. The conditions noted are these: Homo sapiens; venetoclax on CART19-BCL-2(WT); long-term in vitro assay; n=3 donors; read-out: average IC50 value (CART cell survival). The protocol:
CART cells were combined with target cancer cells at an E:T ratio of 0.25:1, and co-cultures were evaluated for absolute count of T cells and cancer cells by flow cytometry using CountBright absolute counting beads (ThermoFisher) every three days. Cultures were maintained at a concentration of 1×10^6 total cells/mL. To monitor their differentiation status, CART cells were harvested on day 0, 9, and 18. Next, CART cells were stained with anti-CCR7 and anti-CD45RA antibodies for flow cytometric analysis. CART cells were re-stimulated by PMA/Ionomycin on day 18 after initial stimulation in order to evaluate the anti-tumor activity of long-survived CART cells.
Correct expression of the transgenes in target cells was confirmed by intracellular staining for CAR19 and BCL-2 using flow cytometry (FIG. 10B). […] Additionally, venetoclax CART cell toxicity assays were performed to evaluate whether the mutant BCL-2 could provide resistance to venetoclax.

For the next data set, the system named is MINO. Briefly: MINO xenograft model. Conditions: venetoclax 50 mg/Kg.
The subject of data set [1] is mantle cell lymphoma (MCL). The data set can be described thus: Clinical outcomes of MCL patients after brexucabtagene autoleucel by venetoclax bridging therapy. The data set is classed as in vivo, human. How it is done: FIGS. 13A-13H illustrate the finding that chromosomal alterations of BCL-2 in lymphoma patients associate with poor prognosis of CART therapy. FIG. 13A is a schematic of the strategy used herein to investigate whether genetic alteration of BCL-2 affects CART's anti-tumor clinical response. Pre-CART biopsies from patients with LCL were analyzed by fluorescence in situ hybridization (FISH) to search for BCL-2 chromosomal aberration. […] FIG. 13F is a schematic of the strategy used herein to investigate the impact of venetoclax bridging therapy on CART19's clinical response in MCL patients. […]
For the large B cell lymphoma cohort, clinical data were collected from patients diagnosed with DLBCL not otherwise specified (NOS), high-grade B cell lymphoma (HGBCL) NOS, HGBCL with MYC and BCL-2 and/or BCL-6 rearrangements, and transformed follicular lymphoma treated at the University of Pennsylvania using two commercial CART19 products (tisagenlecleucel or axicabtagene ciloleucel, UPCC44420) or enrolled in the CTL019 clinical trial NCT02030834. Only patients evaluated for chromosomal alterations involving the BCL-2 locus by interim FISH analysis were included in the current study. […] Disease response was determined according to Lugano classification. […]

For data set [2] the following is noted: patient treated with venetoclax (Jones et al. 2016); cited from earlier work.

The text below walks through data of patent US20240335539A1, “MODULATION OF BCL-2 TO ENHANCE CHIMERIC ANTIGEN RECEPTOR CANCER IMMUNOTHERAPY EFFICACY” (The Trustees of the University of Pennsylvania, priority 2021, published 2024).

Experimental for MINO: For the MINO model, CART cells (5×10^4) were infused 14 days after luciferase+MINO cells were implanted (i.v. injection). […] Either vehicle or venetoclax (50 mg/kg/daily) was administrated for 5 weeks via oral gavage. […] All data represent mean±SD.
All data represent mean±SD.
CART cells (5×10^4) were infused 14 days after luciferase+MINO cell i.v. injection. […] All data represent mean±SD. One-way ANOVA with posthoc Tukey tests was performed for all comparisons.
Six- to 10-week-old NOD SCID γ chain −/− (NSG) mice were obtained from the Stem Cell & Xenograft Core at the University of Pennsylvania and maintained in pathogen-free conditions. […] For the systemic tumor model, 1×10^6 of either NALM6 or MINO were administrated to NSG mice by tail vein injection.
Experimental for NALM6: Killing of NALM6 cells was quantified at 48 hours by luminescence. Drug screening of pro-apoptotic small molecules was performed with two concentrations (100 and 1000 nM). […] Two concentrations of 29 drugs were used (100 nM and 1000 nM). Killing of NALM6 cells was assessed at 48 hours by luminescence. […] UTD: untransduced T cells; CART19: anti-CD19 CAR T cell; MCL: mantle cell lymphoma; E:T=ratio of effector to target; IAP: Inhibition of apoptosis protein.
CART19 and NALM6 (luciferase+) cells were seeded at a ratio of 0.08E:1T (i.e., 600 CART: 7000 NALM6) per well in 25 μl of growth medium (RPMI1640+10% FBS+1% Pen-strep+1% glutamine) of 384-well Corning 3570 microplate using a Multidrop™ Combi Reagent Dispenser (Thermo Scientific). Following cell seeding, drugs (50 nL) were transferred to assay plates using a 50 nL slotted pin tool (V&P Scientific) and a JANUS Automated Workstation (Perkin Elmer). Compounds/drugs were added to a final concentration of 1 μM in 0.2% DMSO. Columns 1 and 23 were treated with 0.2% DMSO (negative control). […] Luminescence was measured on an EnVision Xcite Multilabel Plate Reader (PerkinElmer), using the ultrasensitive luminescence measurement technology.
In order to screen pro-apoptotic small molecules that can enhance CART cell killing, a targeted screening assay was performed. […] Tumor killing was measured by luminescence at 48 hours.

With `CC1(C)CCC(CN2CCN(c3ccc(C(=O)NS(=O)(=O)c4ccc(NCC5CCOCC5)c([N+](=O)[O-])c4)c(Oc4cnc5[nH]ccc5c4)c3)CC2)=C(c2ccc(Cl)cc2)C1` [venetoclax], the “Enhancement of CART19 killing / CART cell cytotoxicity” value in the data set on NALM6 was “strong enhancement of CART19 killing”. Also, the IC50 (usually the midpoint of a concentration-inhibition curve) in the data set with CART19-BCL-2(WT) was determined as 998 nM. The “Toxicity to CART cells in vivo” value with MINO is given as “toxic to CART19”. Besides, the “complete response rate after brex-cel” value in data set [1] (bridging therapy including venetoclax (7/8)) stood at 87.5%. Moreover, the “patients in complete response at one year” value in data set [1] (venetoclax bridging therapy before brex-cel) came out at 100%. In data set [2], the “physiological concentration in a patient” value is given as “around 2.3 M”.
